Data taken from patent US4599331A, “Etianic acids as antiangiogenics” (Syntex (U.S.A.) Inc., priority 1984, dated 1986).
Where “and” joins values, the source holds several entries; their conditions need not be identical. Equal entries are not always repeated. Where two headings read alike, the source gives them in different places.

Experiments:
[1] = tested on: tyrosine aminotransferase (TAT); assay: tyrosine aminotransferase (TAT) induction in HTC cells; type: cell-based, rat; conditions: for Emax: from 10^-6 M down, relative to dexamethasone = 1, read-out: Efficacy (DEX = 1) TAT
Procedure: In this example, tyrosine aminotransferase (TAT) activity was determined by a spectrophotometric assay. This enzyme catalyzes the conversion of tyrosine to p-hydroxyphenylpyruvate. This example is a standard in vitro test for glucocorticoid activity.
Addition of base caused the conversion of p-hydroxyphenylpyruvate to p-hydroxybenzaldehyde, which was quantitatively measured by absorbance at 331 nm. HTC cells, the target cells for the compound tested were grown in DMEM+10% FCS. Subconfluent cell cultures were incubated with test compounds in 6 well Costar dishes for 24 or 48 hours. The cells were incubated in either serum-free DMEM or DMEM containing 10% FCS previously filtered over activated charcoal. The cells were harvested in PBS using a rubber policeman, then washed once in PBS by centrifugation and resuspended in a 0.3 ml lysis buffer of 10 mM Tris, 10 mM EDTA and 0.25M sucrose at pH 7.4. The cells were then lysed by three cycles of freeze-thawing using dry ice and a 37° C. waterbath and the cells debris was pelleted by centrifugation for 2 min at 12,000 9 in an Eppendorf centrifuge.
The supernatant was used for a protein determination using either E+K stain or BioRad protein assay kit and TAT activity. 0.1 ml TAT buffer having 50 mM KH2 PO4, 1 mM EDTA, 0.1 mM Dithiothereitol (DTT), and 5 mg/ml BSA at pH 7.6 and 0.1 ml cell extract were mixed in glass tubes. A prewarmed mixture of 200 parts of a 2.3 mg/ml tyrosine solution in 0.05M phosphate buffer, 100 parts 0.125M KH2 PO4, 10 parts of a 0.92 mg/ml and ketoglutarate solution and 1 part of a 0.04 mg/ml pyridoxalphosphate solution had been previously made up. […] of the prewarmed mixture was added to each tube and allowed to react at 37° C. for 15 min. The addition of 0.1 ml 7N […] stopped the reaction. The mixture was then immediately vortexed.
Aldehyde formation was allowed to proceed at 37° C. for 30 min. The amound of aldehyde formed was determined by UV spectroscopic means. Absorbance was read at 331 nm using a solution composed of 0.1 ml TAT buffer, 0.1 ml lysis buffer, 0.7 ml reaction mixture and 0.1 ml 7N KOH as a blank. Optical Density values are linearily corrected for protein content.
As the absolute amount of enzyme induction varies between experiments, results are expressed as percent of the maximal induction obtained with dexamethasone, which was run as a standard in each assay.
In this series, compounds were assayed from 10^-6 M down. Results are expressed in the TAT column of tables 1, and 2 as the induction ability of a compound as compared to dexamethasone; a compound may either be a partial inducer or a superinducer.

[2] = tested on: alkaline phosphatase (APb); assay: alkaline phosphatase (APb) induction in LE II cells; type: cell-based, mouse; conditions: for Emax: Mus musculus, Table 1, about 65 hours, relative to dexamethasone = 1, read-out: Efficacy (DEX = 1) Alk P
Procedure: This is another standard test for glucocorticoid activity.
LE II cells were grown in DMEM plus 10% FCS, at 37° C., in a 10% carbon dioxide atmosphere. Confluent monolayers of cells were trypsinized and seeded at a 1:15 dilution into 6-well Costar cluster dishes. […] In all experiments, DEX, at concentrations of 10^-9 to 10^-6 M, was added to some of the wells as a positive control.
Cell monolayers were washed with PBS and harvested by scraping with a rubber policeman into 400 μl of a buffer of 20 mM Tris-HCl at pH 7.4; 2 mM MgCl2; and 150 mM NaCl together with 1% Triton X-100. Samples were transferred into 1.5 ml Eppendorf centrifuge tubes and placed on ice. The tubes were first vortexed and then centrifuged in the Eppendorf minicentrifuge for 2 minutes. Duplicate 100 μl aliquots of supernatant were placed into 12×75 mm glass test tubes for determination of APb activity, while the rest was saved for protein determination. […] The tubes were incubated in a 37° C. water bath for between 20 to 50 minutes, depending on the activity of the samples. The APb reaction was terminated by the addition of 0.5 ml of […]. The tubes were mixed and 200 μl portions from each tube were transferred in triplicate to a 96 well microtiter plate. The OD410 nm of each well was then determined using a Dynatech plate reader.
[…] of the cell supernatant were transferred to 96 well microtiter plates for protein determination by a modification of the Lowry method. […] The plates were shaken for 1 hour and then the OD630 was determined using a Dynatech plate reader. The protein content for each sample was calculated by comparing the average OD630 reading with those obtained for a bovine serum albumin standard curve.
The alkaline phosphatase activity of in each sample was expressed as μmoles product formed per minute per mg protein in the Alk P column of Tables 1 and 2. Results are expressed as the induction ability of a compound as compared to dexamethasone.

[3] = tested on: Hamster Melanoma RPM1 1846 tumor cells; assay: hamster cheek pouch (HCP) angiogenesis inhibition, 1846 tumor cell stimulus; type: in vivo, Male Syrian Golden hamsters; conditions: 3×10^5 tumor cells; for % Inhibition HCP Stimulus 1846: Table 1, between 0.5 and 4 mg/kg s.c. daily, each number independent result, average of six animals; for HCP % Inhibition Stimulus 1846: Table 2, compounds given daily at 0.4 mg/kg
Procedure: (§1) Each compound of the series was also tested for anti-angiogenic activity by an in vivo test that measured vascularization in a hamster's cheek pouch in response to either an angiogenic polypeptide growth factor, epidermal growth factor (EGF) or an induced […].
(§2) In this example, the in vivo angiogenesis inhibition activity of etianic acid esters was tested. Male Syrian Golden hamsters, weighing between 120 g and 150 g were anaesthetized by intraperitoneal (I.P.) injection of a rodent anaesthetic mixture consisting of 50 mg/kg ketamine hydrochloride, 5 mg/kg xylazine and 1 mg/kg acepromazine. The left cheek pouch of each animal was everted with a pincet and pinned down to a plexiglass-rubber stage and observed through a Zeiss stereomicroscope. 10 μg of EGF or 3×10^5 Hamster Melanoma RPM1 1846 tumor cells in 10 μl Cibachrome Blue agarose (Amicon) were injected subcutaneously in the left lower quadrant of the pouch with a Hamilton syringe.
(§3) The pouch was then reinserted and animals were kept under observation until recovered from anaesthesia.
(§4) The animals were dosed daily with one test compound, starting one day before stimulus injection and continuing until observation. The test compounds were dissolved in a minimum volume of ethanol and diluted in sterile phosphate buffer solution. […]
(§5) Either five days or twelve days after the EGF or tumor cell injection, animals were anaesthetized by I.P. injection of the rodent anaesthetic mixture. The pouch was everted on the stage and examined under the stereomicroscope. Pictures were taken with a 35 mm using Kodak Tungsten 50 professional films.
(§6) The following subjective scoring was used for evaluating the photographs:
(§7) 1: minimal branching of vessels in the vicinity of injection site.
(§8) 2: new vessels reach injection site, area involved is minimal (<50% of area surrounding injection site).
(§9) 3: many vessels reach and cross injection site, new vessels are tortuous, (>50% of area surrounding injection site).
(§10) 4: "full blown", many tortuous vessels, leakages, hemorrhages, 100% of area around injection site, invasion of new vessels into non-injected areas.
(§11) In the case of the tumor, tumor size was also determined. (See Table 4)
(§12) Results are expressed as the mean of the score. The results are shown in Tables 1 and 2 are percent inhibition of HCP Stimulus.

[4] = tested on: Hamster Melanoma RPM1 1846 tumor cells; assay: Inhibition of tumor growth (2 week assay); type: in vivo, Male Syrian Golden hamsters; conditions: Table 3, dose 0.8 mg/kg; for Angiogenesis score: mean of score 0 (no new vessels) to 4 (full blown), untreated 3.1 [A], 2.9 [B]; for Tumor area Mn (mm^2): untreated 40.7 ± 16.2 [A], 27.5 ± 15.3 [B]
Procedure: as §2, §3
The animals were dosed daily with one test compound, starting one day before stimulus injection and continuing until observation. The test compounds were dissolved in a minimum volume of ethanol and diluted in sterile phosphate buffer solution. Then between 0.5 and 4 mg/kg of the test compound was injected subcutaneously.
as §5, §6, §7, §8, §9, §10, §11, §12

Epidermal Growth Factor = assay: hamster cheek pouch (HCP) angiogenesis inhibition, EGF stimulus; type: in vivo, Male Syrian Golden hamsters; conditions: 10 μg EGF; for % Inhibition HCP Stimulus Epidermal Growth Factor: Table 1, between 0.5 and 4 mg/kg s.c. daily, each number independent result, average of six animals; for HCP % Inhibition Stimulus EGF: Table 2, compounds given daily at 0.4 mg/kg
Procedure: as §1, §2, §3, §4, §5, §6, §7, §8, §9, §10, §12

[5] = Rattus norvegicus, Table 1, 24 or 48 hours
[6] = Rattus norvegicus, Table 2, 24 or 48 hours

Structure (SMILES): C[C@@H]1C[C@H]2[C@@H]3CCC4=CC(=O)C=C[C@]4(C)[C@@]3(F)[C@@H](O)C[C@]2(C)[C@@]1(O)C(=O)CO [Dexamethasone, dexamethasone, reference compound]
- concentration inducing maximal TAT activity [1]: 10^-7 M
- EC50 ([1]; Rattus norvegicus): ~20 nM
- incubation time to maximum induction of alkaline phosphatase activity ([2]; preliminary experiments): 48 to 72 h

Structure (SMILES): CCC(=O)O[C@]1(C(=O)OC)[C@@H](C)C[C@H]2[C@@H]3CC(F)C4=CC(=O)C=C[C@]4(C)[C@@]3(F)[C@@H](O)C[C@@]21C (stereo partly shown) [compound 2]
- % Inhibition HCP Stimulus 1846 [3]: 33% and 35%
- Angiogenesis % Inh. [4]: 35%
- Tumor area % (inhibition of tumor growth) [4]: 58%
- Angiogenesis score [4]: 1.9
- Tumor area Mn (mm^2) [4]: 11.6 ± 10.3 mm^2
- Emax [1, 5]: 80%
- % Inhibition HCP Stimulus Epidermal Growth Factor (Epidermal Growth Factor): 100%
- Emax [2]: 90%

Structure (SMILES): COC(=O)[C@@]1(OC=O)[C@H](C)C[C@H]2[C@@H]3CC(F)C4=CC(=O)C=C[C@]4(C)[C@@]3(F)[C@@H](O)C[C@@]21C (stereo partly shown) [compound 5]
- % Inhibition HCP Stimulus Epidermal Growth Factor (Epidermal Growth Factor): -25%

Structure (SMILES): COC(=O)[C@@]1(OC(C)=O)[C@H](C)C[C@H]2[C@@H]3CC(F)C4=CC(=O)C=C[C@]4(C)[C@@]3(F)[C@@H](O)C[C@@]21C (stereo partly shown) [compound 6]
- Emax [1, 5]: 70%
- % Inhibition HCP Stimulus Epidermal Growth Factor (Epidermal Growth Factor): 23%

Structure (SMILES): CCCCC(=O)O[C@]1(C(=O)OC)[C@H](C)C[C@H]2[C@@H]3CC(F)C4=CC(=O)C=C[C@]4(C)[C@@]3(F)[C@@H](O)C[C@@]21C (stereo partly shown) [compound 10]
- % Inhibition HCP Stimulus 1846 [3]: 24%
- Angiogenesis % Inh. [4]: 23%
- Tumor area % (inhibition of tumor growth) [4]: 45%
- Angiogenesis score [4]: 2.4
- Tumor area Mn (mm^2) [4]: 22.5 ± 13.7 mm^2
- Emax [1, 5]: 90%
- % Inhibition HCP Stimulus Epidermal Growth Factor (Epidermal Growth Factor): 100%
- Emax [2]: 70%

Structure (SMILES): CCC(=O)O[C@]1(C(=O)SC)[C@@H](C)C[C@H]2[C@@H]3CC(F)C4=CC(=O)C=C[C@]4(C)[C@@]3(F)C(O)C[C@@]21C (stereo partly shown) [compound 11]
- HCP % Inhibition Stimulus 1846 [3]: 28%
- Emax [1, 6]: 140%
- HCP % Inhibition Stimulus EGF (Epidermal Growth Factor): 100%

Structure (SMILES): CCCC(=O)O[C@]1(C(=O)SC)[C@@H](C)C[C@H]2[C@@H]3CCC4=CC(=O)C=C[C@]4(C)[C@@]3(F)C(O)C[C@@]21C (stereo partly shown) [compound 12]
- Emax [1, 6]: 130%
- HCP % Inhibition Stimulus EGF (Epidermal Growth Factor): 37%

Structure (SMILES): CCCC(=O)O[C@]1(C(=O)SC)[C@@H](C)C[C@H]2[C@@H]3CC(F)C4=CC(=O)C=C[C@]4(C)[C@@]3(F)[C@@H](O)C[C@@]21C (stereo partly shown) [compound 13]
- HCP % Inhibition Stimulus 1846 ([3]; 0.4 mg/kg): 40% and 53% and 45%
- Angiogenesis % Inh. [4]: 42%
- Tumor area % (inhibition of tumor growth) [4]: 78%
- Angiogenesis score [4]: 1.8
- Tumor area Mn (mm^2) [4]: 9.1 ± 3 mm^2
- Emax [1, 6]: 90%
- HCP % Inhibition Stimulus EGF (Epidermal Growth Factor; 0.4 mg/kg): 94% and 84%

Structure (SMILES): CCCCC(=O)O[C@]1(C(=O)SC)[C@@H](C)C[C@H]2[C@@H]3CC(F)C4=CC(=O)C=C[C@]4(C)[C@@]3(F)C(O)C[C@@]21C (stereo partly shown) [compound 14]
- HCP % Inhibition Stimulus 1846 [3]: 16%
- Emax [1, 6]: 60%
- HCP % Inhibition Stimulus EGF (Epidermal Growth Factor; 0.4 mg/kg): 22% and 42%

Structure (SMILES): CCC(=O)O[C@]1(C(=O)SC)[C@H](C)C[C@H]2[C@@H]3CCC4=CC(=O)C=C[C@]4(C)[C@@]3(F)C(O)C[C@@]21C (stereo partly shown) [compound 15]
- HCP % Inhibition Stimulus EGF (Epidermal Growth Factor): 30%

Structure (SMILES): CCC(=O)O[C@]1(C(=O)SC)[C@H](C)C[C@H]2[C@@H]3CC(F)C4=CC(=O)C=C[C@]4(C)[C@@]3(F)C(O)C[C@@]21C (stereo partly shown) [compound 16]
- HCP % Inhibition Stimulus 1846 ([3]; 0.4 mg/kg): 25% and 35%
- Emax [1, 6]: 120%
- HCP % Inhibition Stimulus EGF (Epidermal Growth Factor): 46%

Structure (SMILES): CCCC(=O)O[C@]1(C(=O)SC)[C@H](C)C[C@H]2[C@@H]3CC(F)C4=CC(=O)C=C[C@]4(C)[C@@]3(F)C(O)C[C@@]21C (stereo partly shown) [compound 18]
- HCP % Inhibition Stimulus 1846 [3]: 16%
- Emax [1, 6]: 130%
